For one substance, IC50 results are on record in patent US5561042A, “Diamine platinum naphthalimide complexes as antitumor agents” (Cancer Therapy and Research Center, priority 1995, dated 1996).

Experiment [1] deals with P388 murine leukemic cell line. Nature of the experiment: In vitro growth inhibition (MTT), P388 leukemia. It counts as cell-based. The following applies: 3 days. An excerpt: P388 murine leukemic cell line was obtained from the DCT Tumor Repository (National Cancer Institute, Frederick Cancer Research and Development, Frederick Md. 21702). HT29 Human Colon Carcinoma cell line was obtained from the American Type Culture Collection (12301 Parklawn Drive, Rockville, Md. 20852). B16 Melanoma cell line was obtained from DuPont Merck Pharmaceutical Company (Glenolden, Pa. 19036). MCF-7 Human Breast Carcinoma cell line was a gift from Dr. K. Osborne (Department of Medicine, The University of Texas Health Science Center at San Antonio, San Antonio, Tex. 78284). All cell lines were incubated at 37° C. in a humidified atmosphere of 5% CO2 -95% air. Murine B16 melanoma cell line was grown in RPMI 1640 medium supplemented with 10% heat-inactivated fetal bovine serum, 2 mM L-glutamine, 50 units/ml penicillin, 50 μg/ml streptomycin, 25 μg/ml gentamycin, 0.75% sodium bicarbonate, 10 mM HEPES buffer (pH 7.4), and 0.06 mg/ml AntiPPLO. Murine P388 leukemic and the human HT-29 colon adenocarcinoma cell lines were maintained in RPMI 1640 medium supplemented with 10% heat-inactivated fetal bovine serum. MCF-7M human breast adenocarcinoma was maintained in IMEM medium supplemented with 5% non heat-inactivated fetal bovine serum and 1 nM insulin.
Exponentially growing cells (1-2×10^3 cells, unless specified otherwise) in 0.1 ml medium were seeded on day 0 in a 96-well microtiter plate. On day 1, 0.1 ml aliquots of medium containing graded concentrations of test compounds were added in duplicate to the cell plates. After incubation at 37° C. in a humidified incubator for 3 days (P388, B16) or 6 days (HT-29, MCF-7M), the plates were centrifuged briefly and 100 μl of the growth medium was removed. Cell cultures were incubated with 50 μl of 3-(4,5-dimethylthiazol-2-yl)-2,5-diphenyl-tetrazolium bromide [MTT, 1 mg/ml in Dulbecco's phosphate buffered saline (PBS)] for 4 hr at 37° C. The resulting purple formazan precipitate was solubilized with 200 μl of 0.04N HCl in isopropyl alcohol. Absorbance was monitored in a BioRad Model 3550 Microplate Reader at a test wavelength of 570 nm and a reference wavelength of 630 nm. The absorbance was transferred to a PC 486 computer. The IC50 values were determined by a computer program (EZ-ED50) that fit all of the data to the following four-parameterlogistic equation:
Y=((Am -Ao)/(1+(X/IC50)^n))+Ao
where Am is the absorbance of control cells, Ao is the absorbance of cells in the presence of highest agent concentration, Y is the observed absorbance, X is the agent concentration, IC50 is the concentration of agent that inhibits the cell growth by 50% of control cells (based on the absorbance) and n is the slope of the curve.

The target of a further experiment is Lambda DNA. The experiment can be described thus: Ethidium bromide displacement, lambda DNA. Format: binding. The following applies: 1 μM DNA, 1.26 μM ethidium bromide, pH 7.0, read-out: FI50, Lambda DNA. The protocol:
A 10× Binding solution was prepared by combining 0.93 ml of an aqueous NaCl solution (5M), 2.0 ml of an aqueous Tris HCl (500 mM) solution, 0.1 ml of an EDTA solution (500 mM) and 46.97 ml of water. The resultant solution was 93 mM in NaCl, 20 mM in Tris HCl, and 1 mM in EDTA. Stock DNA solution were prepared as follows: Poly (dG·dC)-(dG·dC) (ε254=8.4/mM; 27-7910-02), poly(dA·dT)-(dA·dT) (ε262=6.6/mM; 27-7870-02), and lambda DNA (ε260-7.0/mM; 27-4111-01) were purchased from Pharmacia. Solutions were prepared by resuspending either poly (dG·dC)-(dG·dC) or poly(dA·dT)-(dA·dT)in 1 ml of 10× DNA Binding Solution. Lambda DNA is already in solution as purchased.
Poly (dG·dC)-(dG·dC), poly(dA·dt)-(dA·dt) and lambda DNA concentrations were determined as follows: 980 μl of 10× DNA Binding Solution was pipetted into a 1 ml cuvette. A blank was run on the UV spectrophotometer. 20 μl of the DNA stock of unknown concentration was then added into the cuvette. The sample was then scanned between 210 nm to 500 nm and the absorbance recorded at 254 nm for poly(dG·dC)-(dG·dC), at 262 nm for poly(dA·dT)-(dA·dT) and at 260 nm for lambda DNA. The solution was transferred to a clean tube. This procedure was followed for three different solutions with the absorbance taken as the average of the three. The concentration of poly(dG·dC)-(dG·dC) stock was calculated to be A254 /8.4×1000 (in μM). The concentration of poly(dA·dT)-(dA·dT) stock was calculated to be A262 /6.6×1000 (in μM). The concentration of lambda DNA stock was calculated to be A260 /7.0×1000 (in μM).
The binding of the bis-naphthalimides to DNA and to synthetic polynucleotide duplexes was determined by an ethidium bromide displacement assay that measures the reduction of fluorescence when ethidium bromide is displaced from DNA (Baguley, 1981). The fluorescence intensity of a 3 ml solution containing 9.3 mM NaCl, 2 mM Tris-HCl (pH 7.0), 100 μM EDTA, 1 μM DNA (in nucleotides) and 1.26 μM ethidium bromide in a quartz cuvette was measured at the excitation (546 nm) and emission (600 nm) wavelengths on a Shimadzu RF5000U spectrofluorometer. Graded concentrations of agent were then added and the fluorescence intensity was measured. The concentration of compound required to reduce the fluorescence intensity by 50% of that of control (FI50) was determined. Therefore, the lower the FI50 the stronger the binding affinity a particular compound has for DNA.
The ability of bis-naphthalimides of the present invention and the known anti-cancer agents compound 22 and DMP840, (R,R)-2,2'[1,2-ethanediylbis[imino(1-methyl-2,1-ethanediyl)]]-bis[5-nitro- 1H benz[de]isoquinoline-1,3-(2H)dione]dimethanesulfonate, to bind to DNA and to synthetic oligonucleotide duplexes was measured using an ethidium bromide displacement assay. Ethidium bromide, a known DNA intercalator, has no fluorescence in the absence of DNA; however, fluorescence intensity increases when ethidium bromide binds to DNA. The ethidium bromide displacement assay measures the decrease in fluorescence intensity caused by DNA-bound ethidium bromide with DNA interacting agents.

As to “8-(3'-nitro-1',8'-naphthalimide)-3,6-diazaoctylamine dichloroplatinum(II) [Compound 21]”, the IC50 turned out to be 302 nM in experiment [1] and 235 nM on Lambda DNA.
